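Cultured in 96-well plates, cells were exposed to test compound for 48 hours across five concentrations. GI50: concentration for 50% inhibition of growth. TGI is the concentration that stops growth completely.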
Tests used:
Experiment in all cases: NCI-60 cell line screen, 48 h
[1] = system: 786-0 renal
[2] = system: A498 renal
[3] = system: HOP-92 NSCLC
[4] = system: HS 578T breast
[5] = system: KM12 colon
[6] = system: MCF7 breast
[7] = system: SF-539 CNS
[8] = system: SNB-19 CNS
[9] = system: TK-10 renal
[10] = system: U251 CNS

Compound	GI50 [1] [µM]	TGI [1] [µM]	GI50 [2] [µM]	TGI [2] [µM]	GI50 [3] [µM]	TGI [3] [µM]	GI50 [4] [µM]	TGI [4] [µM]	GI50 [5] [µM]	TGI [5] [µM]	GI50 [6] [µM]	TGI [6] [µM]	GI50 [7] [µM]	TGI [7] [µM]	GI50 [8] [µM]	TGI [8] [µM]	GI50 [9] [µM]	TGI [9] [µM]	GI50 [10] [µM]	TGI [10] [µM]
Cn1c(O)c(C(/C=C/c2ccccc2)=NCCN=C(/C=C/c2ccccc2)c2c(O)n(C)c(=O)n(C)c2=O)c(=O)n(C)c1=O	21.3	> 50	16.6	40.7	12	32.5	13.4	34.7	14.1	> 50	15.9	> 50	13.7	33.3	21.6	> 50	23.7	> 50	18.3	> 50
COc1ccc2nc3cc(Cl)ccc3c(N3CCN(c4ccnc(N5CCOCC5)n4)CC3)c2c1	4.23	34.3	27.8	> 100	11.5	> 100	12.3	> 100	19.3	> 100	1.89	4.9	> 100	> 100	> 100	> 100	42.5	> 100	> 100	> 100
O=c1c2ccccc2n2n1CC(O)C2 (stereo not drawn)		> 100	> 100	> 100		> 100	> 100	> 100		> 100	> 100	> 100		> 100		> 100		> 100		> 100

Reference: PubChem BioAssay (NCI)
